Experimental data published in PMC7659001, “The auxin-inducible degron 2 technology provides sharp degradation control in yeast, mammalian cells, and mice” (Nature Communications, 2020).
Values belong to the compound of their own block, whether it stands above or below them.

How the values were obtained:
Type in all cases: cell-based
OsTIR1 [1] = biological target: T1, OsTIR1 (Oryza sativa subsp. japonica, UniProt P93830+Q7XVM8, Q7XVM8:F74G); assay: mAID-EGFP-NLS reporter degradation dose response in HCT116 cells (DC50)
T1 construct: gene Os04g0395600; with mAID degron (Arabidopsis IAA17); SCF (Skp1-Cul1)

OsTIR1 [2] = biological target: T2, OsTIR1 (Oryza sativa subsp. japonica, UniProt P93830+Q7XVM8); assay: as above
T2 construct: gene Os04g0395600; with mAID degron (Arabidopsis IAA17); SCF (Skp1-Cul1)

OsTIR1 [3] = biological target: T3, OsTIR1 (Oryza sativa, UniProt Q7XVM8); assay: OsTIR1(WT) level in HCT116 cells raised by the inhibitor (suppressed autodegradation)
T3 construct: gene Os04g0395600
T3 sequence (Q7XVM8 1-575): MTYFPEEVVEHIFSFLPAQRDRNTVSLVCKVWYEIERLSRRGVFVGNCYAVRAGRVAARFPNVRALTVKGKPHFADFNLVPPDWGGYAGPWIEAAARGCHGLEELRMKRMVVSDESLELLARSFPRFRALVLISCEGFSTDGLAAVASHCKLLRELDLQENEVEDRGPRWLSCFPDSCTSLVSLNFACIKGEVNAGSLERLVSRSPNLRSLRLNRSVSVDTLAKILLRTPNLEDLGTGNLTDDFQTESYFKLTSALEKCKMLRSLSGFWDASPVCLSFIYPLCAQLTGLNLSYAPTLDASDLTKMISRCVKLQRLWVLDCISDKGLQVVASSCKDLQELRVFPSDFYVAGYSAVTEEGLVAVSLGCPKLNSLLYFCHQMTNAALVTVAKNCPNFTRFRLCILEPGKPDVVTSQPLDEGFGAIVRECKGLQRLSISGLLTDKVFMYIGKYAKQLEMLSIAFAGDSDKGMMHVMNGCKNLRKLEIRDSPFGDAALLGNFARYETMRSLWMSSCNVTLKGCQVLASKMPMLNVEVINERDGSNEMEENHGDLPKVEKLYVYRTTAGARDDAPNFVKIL

T2 sequence (P93830 whole entry, one chain of several): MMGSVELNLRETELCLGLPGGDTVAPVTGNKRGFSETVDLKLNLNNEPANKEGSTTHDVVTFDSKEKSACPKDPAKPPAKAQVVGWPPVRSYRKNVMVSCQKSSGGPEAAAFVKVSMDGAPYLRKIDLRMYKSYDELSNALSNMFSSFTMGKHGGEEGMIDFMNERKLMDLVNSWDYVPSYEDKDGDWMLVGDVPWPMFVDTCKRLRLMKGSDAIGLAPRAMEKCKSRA
T1 sequence (Q7XVM8 whole entry F74G): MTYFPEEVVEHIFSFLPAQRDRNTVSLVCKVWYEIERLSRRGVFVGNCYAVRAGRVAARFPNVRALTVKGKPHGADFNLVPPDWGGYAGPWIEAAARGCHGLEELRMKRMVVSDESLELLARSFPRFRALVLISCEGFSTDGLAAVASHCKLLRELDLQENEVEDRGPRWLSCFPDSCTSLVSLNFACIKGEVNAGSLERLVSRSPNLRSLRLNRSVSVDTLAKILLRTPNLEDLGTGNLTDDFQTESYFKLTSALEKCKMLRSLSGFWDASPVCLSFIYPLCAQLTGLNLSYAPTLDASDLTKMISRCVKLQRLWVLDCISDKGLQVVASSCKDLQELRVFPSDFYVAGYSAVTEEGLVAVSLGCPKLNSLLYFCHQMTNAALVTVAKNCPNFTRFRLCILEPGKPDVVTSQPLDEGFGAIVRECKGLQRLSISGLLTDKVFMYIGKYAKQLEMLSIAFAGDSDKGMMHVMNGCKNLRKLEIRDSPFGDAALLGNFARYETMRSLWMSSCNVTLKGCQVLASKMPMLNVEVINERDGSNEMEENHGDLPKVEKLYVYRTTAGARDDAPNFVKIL
T1 sequence (P93830 65-132 limits assumed): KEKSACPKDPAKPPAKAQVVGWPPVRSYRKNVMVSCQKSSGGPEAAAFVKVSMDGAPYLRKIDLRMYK

SMILES: O=C(O)Cc1c[nH]c2ccc(-c3ccccc3)cc12 [5-Ph-IAA, 5-phenyl-indole-3-acetic acid]
DC50 (OsTIR1 [1]): 0.45 ± 0.01 nM

DC50 (OsTIR1 [2]): 300 ± 30 nM
SMILES: O=C(O)Cc1c[nH]c2ccccc12 [IAA, indole-3-acetic acid]

SMILES: Cc1ccc(C(=O)CC(C(=O)O)c2c[nH]c3ccccc23)c(C)c1 (stereo not drawn) [auxinole]
OsTIR1(WT) level in HCT116 cells raised by the inhibitor (suppressed autodegrada) (OsTIR1 [3]): The expression level of OsTIR1(WT) was enhanced by the addition of an OsTIR1 inhibitor auxinole
